Each structure is given as a SMILES string. Counter-ions that a name gives are not always drawn.

In publication PMC5500991, “Substituted arylsulphonamides as inhibitors of perforin-mediated lysis” (European Journal of Medicinal Chemistry, 2017) one finds melting point data, which are given here for 32 compounds.

The term melting point denotes the temperature, or range, at which the solid turns liquid. `CN1Cc2cc(-c3ccc(-c4cncc(NS(=O)(=O)c5ccccc5Br)c4)s3)ccc2C1=O` [Compound 32, 2-Bromo-N-(5-(5-(2-methyl-1-oxoisoindolin-5-yl)thiophen-2-yl)pyridin-3-yl)benzenesulfonamide] showed a melting point of 289 to 293 °C.

Consider `Cc1ccc(S(=O)(=O)Nc2cncc(-c3ccc(-c4ccc5c(c4)CN(C)C5=O)s3)c2)cc1Cl` [Compound 63, 3-Chloro-4-methyl-N-(5-(5-(2-methyl-1-oxoisoindolin-5-yl)thiophen-2-yl)pyridin-3-yl)benzenesulfonamide], for which the melting point is 277 to 279 °C.

With `CN1Cc2cc(-c3ccc(-c4cncc(NS(=O)(=O)c5cccs5)c4)s3)ccc2C1=O` [Compound 68, N-(5-(5-(2-Methyl-1-oxoisoindolin-5-yl)thiophen-2-yl)pyridin-3-yl)thiophene-2-sulfonamide], the melting point was 300 to 304 °C.

The compound `COC(=O)c1cccc(S(=O)(=O)Nc2cncc(-c3ccc(-c4ccc5c(c4)CN(C)C5=O)s3)c2)c1` [Compound 52, Methyl 3-(N-(5-(5-(2-methyl-1-oxoisoindolin-5-yl)thiophen-2-yl)pyridin-3-yl)sulfamoyl)benzoate] came in with a melting point of 250 to 254 °C.

Take `CN1Cc2cc(-c3ccc(-c4cncc(NS(=O)(=O)c5ccccc5S(C)(=O)=O)c4)s3)ccc2C1=O` [Compound 56, N-(5-(5-(2-Methyl-1-oxoisoindolin-5-yl)thiophen-2-yl)pyridin-3-yl)-2-(methylsulfonyl)benzenesulfonamide]: the melting point fell in the range of 269 to 272 °C.

`CN1Cc2cc(-c3ccc(-c4cncc(NS(=O)(=O)c5ccccc5F)c4)s3)ccc2C1=O` [Compound 22, 2-Fluoro-N-(5-(5-(2-methyl-1-oxoisoindolin-5-yl)thiophen-2-yl)pyridin-3-yl)benzenesulfonamide] registered a melting point of 289 to 292 °C.

The compound `CN1Cc2cc(-c3ccc(-c4cncc(NS(=O)(=O)c5cccc(F)c5)c4)s3)ccc2C1=O` [Compound 23, 3-Fluoro-N-(5-(5-(2-methyl-1-oxoisoindolin-5-yl)thiophen-2-yl)pyridin-3-yl)benzenesulfonamide] returned a melting point of 292 to 294 °C.

For the compound `COC(=O)c1ccccc1S(=O)(=O)Nc1cncc(-c2ccc(-c3ccc4c(c3)CN(C)C4=O)s2)c1` [Compound 51, Methyl 2-(N-(5-(5-(2-methyl-1-oxoisoindolin-5-yl)thiophen-2-yl)pyridin-3-yl)sulfamoyl)benzoate], the melting point was in the range of 209 to 212 °C.

As to `CN1Cc2cc(-c3ccc(-c4cncc(NS(=O)(=O)c5ccc(C(F)(F)F)cc5Cl)c4)s3)ccc2C1=O` [Compound 64, 2-Chloro-N-(5-(5-(2-methyl-1-oxoisoindolin-5-yl)thiophen-2-yl)pyridin-3-yl)-4-(trifluoromethyl)benzenesulfonamide], the melting point fell in the range of 292 to 295 °C.

As to `CN1Cc2cc(-c3ccc(-c4cncc(NS(=O)(=O)c5cccnc5)c4)s3)ccc2C1=O` [Compound 67, N-(5-(5-(2-Methyl-1-oxoisoindolin-5-yl)thiophen-2-yl)pyridin-3-yl)pyridine-3-sulfonamide], the melting point was 283 to 286 °C.

As to `CN1Cc2cc(-c3ccc(-c4cncc(NS(=O)(=O)c5ccccn5)c4)s3)ccc2C1=O` [Compound 66, N-(5-(5-(2-Methyl-1-oxoisoindolin-5-yl)thiophen-2-yl)pyridin-3-yl)pyridine-2-sulfonamide], the melting point was 272 to 275 °C.

Regarding `COc1ccc(S(=O)(=O)Nc2cncc(-c3ccc(-c4ccc5c(c4)CN(C)C5=O)s3)c2)cc1` [Compound 39, 4-Methoxy-N-(5-(5-(2-methyl-1-oxoisoindolin-5-yl)thiophen-2-yl)pyridin-3-yl)benzenesulfonamide], the melting point lay in the range of 254 to 258 °C.

Consider `COc1ccccc1S(=O)(=O)Nc1cncc(-c2ccc(-c3ccc4c(c3)CN(C)C4=O)s2)c1` [Compound 37, 2-Methoxy-N-(5-(5-(2-methyl-1-oxoisoindolin-5-yl)thiophen-2-yl)pyridin-3-yl)benzenesulfonamide], for which the melting point lay in the range of 273 to 276 °C.

As for `CN1Cc2cc(-c3ccc(-c4cncc(NS(=O)(=O)c5cccc(Cl)c5)c4)s3)ccc2C1=O` [Compound 28, 3-Chloro-N-(5-(5-(2-methyl-1-oxoisoindolin-5-yl)thiophen-2-yl)pyridin-3-yl)benzenesulfonamide], the melting point is 291 to 295 °C.

As for `COc1ccc(-c2ccc(-c3ccc4c(c3)CN(C)C4=O)s2)cc1S(=O)(=O)Nc1ccccn1` (as salt: sodium) [Compound 19, Sodium ((2-methoxy-5-(5-(2-methyl-1-oxoisoindolin-5-yl)thiophen-2-yl)phenyl)sulfonyl)(pyridin-2-yl)amide], the melting point fell in the range of 322 to 325 °C.

As for `CN1Cc2cc(-c3ccc(-c4cncc(NS(=O)(=O)c5ccc(-c6ccno6)s5)c4)s3)ccc2C1=O` [Compound 71, 5-(Isoxazol-5-yl)-N-(5-(5-(2-methyl-1-oxoisoindolin-5-yl)thiophen-2-yl)pyridin-3-yl)thiophene-2-sulfonamide], the melting point was 245 to 249 °C.

With `CN1Cc2cc(-c3ccc(-c4cncc(NS(=O)(=O)c5ccsc5)c4)s3)ccc2C1=O` [Compound 69, N-(5-(5-(2-Methyl-1-oxoisoindolin-5-yl)thiophen-2-yl)pyridin-3-yl)thiophene-3-sulfonamide], the melting point was more than 300 °C.

As for `CN1Cc2cc(-c3ccc(-c4cncc(NS(=O)(=O)c5ccccc5Cl)c4)s3)ccc2C1=O` [Compound 27, 2-Chloro-N-(5-(5-(2-methyl-1-oxoisoindolin-5-yl)thiophen-2-yl)pyridin-3-yl)benzenesulfonamide], the melting point was 299 to 303 °C.

In turn, `Cc1cc(C)n(-c2ccc(S(=O)(=O)Nc3cncc(-c4ccc(-c5ccc6c(c5)CN(C)C6=O)s4)c3)cc2)n1` [Compound 72, 4-(3,5-Dimethyl-1H-pyrazol-1-yl)-N-(5-(5-(2-methyl-1-oxoisoindolin-5-yl)thiophen-2-yl)pyridin-3-yl)benzenesulfonamide] displayed a melting point of 265 to 268 °C.

`CN1Cc2cc(-c3ccc(-c4cncc(NS(=O)(=O)c5ccc(I)cc5)c4)s3)ccc2C1=O` [Compound 36, 4-Iodo-N-(5-(5-(2-methyl-1-oxoisoindolin-5-yl)thiophen-2-yl)pyridin-3-yl)benzenesulfonamides] returned a melting point of 295 to 298 °C.

For the compound `CN1Cc2cc(-c3ccc(-c4cncc(NS(=O)(=O)c5ccccc5C#N)c4)s3)ccc2C1=O` [Compound 48, 2-Cyano-N-(5-(5-(2-methyl-1-oxoisoindolin-5-yl)thiophen-2-yl)pyridin-3-yl)benzenesulfonamide], the melting point was more than 310 °C.

As to `CN1Cc2cc(-c3ccc(-c4cncc(NS(=O)(=O)c5cccc(Br)c5)c4)s3)ccc2C1=O` [Compound 33, 3-Bromo-N-(5-(5-(2-methyl-1-oxoisoindolin-5-yl)thiophen-2-yl)pyridin-3-yl)benzenesulfonamide], the melting point was 303 to 307 °C.

`COc1ccc(S(=O)(=O)Nc2cncc(-c3ccc(-c4ccc5c(c4)CN(C)C5=O)s3)c2)cc1OC` (as salt: sodium) [Compound 40, 3,4-Dimethoxy-N-(5-(5-(2-methyl-1-oxoisoindolin-5-yl)thiophen-2-yl)pyridin-3-yl)benzenesulfonamide, sodium salt] registered a melting point of 240 to 244 °C.

`CN1Cc2cc(-c3ccc(-c4cncc(NS(=O)(=O)c5ccc(S(C)(=O)=O)cc5)c4)s3)ccc2C1=O` (as salt: sodium) [Compound 57, Sodium (5-(5-(2-methyl-1-oxoisoindolin-5-yl)thiophen-2-yl)pyridin-3-yl)((4-(methylsulfonyl)phenyl)sulfonyl)amide] had a melting point of more than 300 °C.

As for `CCOC(=O)c1ccc(S(=O)(=O)Nc2cncc(-c3ccc(-c4ccc5c(c4)CN(C)C5=O)s3)c2)cc1` [Compound 54, Ethyl 4-(N-(5-(5-(2-methyl-1-oxoisoindolin-5-yl)thiophen-2-yl)pyridin-3-yl)sulfamoyl)benzoate], the melting point fell in the range of 272 to 275 °C.

For `COC(=O)c1ccc(S(=O)(=O)Nc2cncc(-c3ccc(-c4ccc5c(c4)CN(C)C5=O)s3)c2)cc1` [Compound 53, Methyl 4-(N-(5-(5-(2-methyl-1-oxoisoindolin-5-yl)thiophen-2-yl)pyridin-3-yl)sulfamoyl)benzoate], the melting point fell in the range of 269 to 272 °C.

`CN1Cc2cc(-c3ccc(-c4cncc(NS(=O)(=O)c5ccc(Cl)cc5)c4)s3)ccc2C1=O` [Compound 29, 4-Chloro-N-(5-(5-(2-methyl-1-oxoisoindolin-5-yl)thiophen-2-yl)pyridin-3-yl)benzenesulfonamide] had a melting point of 281 to 284 °C.

On to `CN1Cc2cc(-c3ccc(-c4cncc(NS(=O)(=O)c5ccc(F)cc5)c4)s3)ccc2C1=O` [Compound 24, 4-Fluoro-N-(5-(5-(2-methyl-1-oxoisoindolin-5-yl)thiophen-2-yl)pyridin-3-yl)benzenesulfonamide], for which the melting point fell in the range of 272 to 274 °C.

Consider `CN1Cc2cc(-c3ccc(-c4cncc(NS(=O)(=O)c5ccc(C(F)(F)F)cc5)c4)s3)ccc2C1=O` [Compound 46, N-(5-(5-(2-Methyl-1-oxoisoindolin-5-yl)thiophen-2-yl)pyridin-3-yl)-4-(trifluoromethyl)benzenesulfonamide], for which the melting point lay within 282 to 284 °C.

`CN1Cc2cc(-c3ccc(-c4cccc(NS(=O)(=O)c5ccc(F)cc5F)c4)s3)ccc2C1=O` [Compound 9, 2,4-Difluoro-N-(3-(5-(2-methyl-1-oxoisoindolin-5-yl)thiophen-2-yl)phenyl)benzene sulphonamide] came in with a melting point of 260 to 262 °C.

As for `CN1Cc2cc(-c3ccc(-c4cncc(NS(=O)(=O)c5ccccc5)c4)s3)ccc2C1=O` [Compound 21, N-(5-(5-(2-Methyl-1-oxoisoindolin-5-yl)thiophen-2-yl)pyridin-3-yl)benzenesulphonamide], the melting point was 300 to 303 °C.

With `CN1Cc2cc(-c3ccc(-c4cncc(NS(=O)(=O)c5cccc(OC(F)(F)F)c5)c4)s3)ccc2C1=O` [Compound 42, N-(5-(5-(2-Methyl-1-oxoisoindolin-5-yl)thiophen-2-yl)pyridin-3-yl)-3-(trifluoromethoxy)benzenesulfonamide], the melting point lay in the range of 230 to 232 °C.
